Key:
[1] = tested on: TNFα mRNA; experiment: TNFα mRNA by semiquantitative RT-PCR in Colo205 cells; assay type: cell-based, human
Method: (§1) This procedure describes the semi-quantitative measurement of human TNFα mRNA levels in human cell culture.
(§2) Cell Treatment: cells were plated in 6 well dishes at 1.5×10^5 cells/ml in a volume of 2.5 ml, next day cells were treated −/+50 ul of 5 μM Smac Mimetic, JP1010, (final concentration: 100 nM) for 4 hr.
(§3) RNA Isolation: cells were washed 2× with 2 ml PBS followed by isolation of RNA from 6 well dishes using Qiagen RNAeasy kit or TRIzol reagent (Invitrogen) according to manufacturer's protocol. RNA isolation with TRIzol was conducted by adding 1 ml of TRIzol reagent to each well and pipetting up and down several times before transferring lysate to 1.5 ml microfuge tube. […] RNA concentration was measured. […]
(§4) Semi-quantitative RT-PCR for TNFα and Actin were performed as follows: Control semi-quantitative Actin PCR were conducted in a 25 ul reaction mixture with the following cycle condition: 94° C. […] TNFa semi quantitative PCR were conducted in a 25 ul reaction mixture with the following cycle conditions: 94° C.-2 min, 30-35 cycles (depending on cell line) of 94° C.-30 sec, 59° C.-30 sec, 72° C.-1 min, followed by 72° C. for 10 min. […]

[2] = tested on: cIAP2 mRNA; experiment: cIAP2 mRNA level in Colo205 cells; assay type: cell-based; conditions: MS-275 alone
[3] = tested on: acetylated Histone H4 levels at the TNFα locus; experiment: ChIP of acetylated histone H4 at the TNFα locus in MDA-MB231 cells; assay type: cell-based; conditions: 5 mM NaBu
Method: Purpose: This procedure evaluates the localization of specific proteins or their modified forms on chromatin. For our purpose to specifically evaluate the levels of modified histones and cofactors bound to the Tumor Necrosis Factor (TNFa) gene promoter.
ChIP Lysis buffer contained 1% SDS, 10 mM EDTA, 50 mM Tris-HCl, pH8.1, 1× protease inhibitor cocktail (Roche). ChIP Dilution buffer contained 1% Triton x-100, 2 mM EDTA, 150 mM NaCl, 20 mM Tris-HCl, pH8.1, 1× protease inhibitor cocktail (Roche). Wash Buffer I contained 0.1% SDS, 1% Triton x-100, 2 mM EDTA, 150 mM NaCl, 20 mM Tris-HCl, pH8.1. Wash Buffer II contained wash buffer I with 500 mM NaCl. Wash Buffer III contained 0.25M LiCl, 1% NP-40, 1% deoxycholate, 1 mM EDTA, 10 mM Tris-HCl, pH8.1. TE buffer contained 10 mM Tris-HCl, pH 7.5, 0.1 mM EDTA. ChIP Extraction buffer contained 1% SDS, 0.1M NaHCO3. Antibodies used include anti-histone H3 (Abcam, ab1791), anti-hyperacetylated histone H4 (Millipore, 06-946), anti-dimethyl-histone H3k4 (Millipore, 07-030), anti-dimethyl histone H3K9 (Abcam, ab1220), anti-histone H4 (Millipore, 05-858), anti-acetylated H3 (Millipore, 06-599), anti-acetylated H4 (Millipore, 06-866).
Cells were plated on either 10 cm or 15 cm tissue culture dishes (˜1×10^6). At 80-100% confluency cells were crosslinked by the addition of 37% formaldehyde (final concentration 1%) directly to the cell medium. […]

[4] = tested on: TNFα mRNA; experiment: TNFα mRNA by RT-PCR in H2073 cells; assay type: cell-based, human; conditions: FIG. 5 legend
Method: as §1, §2, §3, §4

SMILES | Smac mimetic-induced TNFα production ([1]; FIG. 4 legend) | production of TNFα mRNA ([1]; agent alone) | mRNA level of cIAP2 [2] | increase of the level of acetylated H4 [3] | Smac mimetic-induced TNFα production [4]
Nc1ccccc1NC(=O)c1ccc(CNC(=O)OCc2cccnc2)cc1 [MS-275] | Primes | increased | increased | – | –
CCCC(=O)[O-].[Na+] [NaBu, Sodium butyrate] | – | – | – | 4-5 fold | increases

Reference: patent publication US8426136B2, “Epigenetic modifications at TNFα as biomarkers for sensitivity to Smac mimetic-induced apoptosis” (Joyant Pharmaceuticals, Inc., priority 2009, dated 2013)
